From paper PMC9823088, “The oral selective estrogen receptor degrader GDC-0810 (ARN-810) in postmenopausal women with hormone receptor-positive HER2-negative (HR + /HER2 −) advanced/metastatic breast cancer” (Breast Cancer Research and Treatment, 2022)

Experiments:
[1] = Plasma pharmacokinetics of GDC-0810 and glucuronide metabolites; assay type: in vivo, human; conditions: steady state, 600-mg QD, non-fasted condition
Procedure: Blood samples were collected for pharmacokinetic assessments. Tumor assessments were performed at screening and every 8 weeks from cycle 1, day 1 (C1D1). Radiographic assessment of objective tumor response or disease progression was based on Response Evaluation Criteria in Solid Tumors (RECIST v1.1). Transvaginal ultrasound scans were performed to monitor endometrial thickness at screening, at every 6 months from C1D1, and at the end of treatment. Imaging with [^18F]-fluoroestradiol positron emission tomography (FES-PET) was performed to quantify ER expression in tumors and to assess for pharmacodynamic response. Further assessment details are provided in Supplementary Methods.
CYP2B6 and CYP2C enzymes. […]
Blood samples were collected for pharmacokinetic assessment on lead-in day −7 and cycle 2 day 1 (C2D1) at predose (0 hour) and postdose (0.5, 1, 1.5, 2, 3, 4, 6, 8, and 24 hours), (plus at 48 hours postdose for day−7). Full plasma pharmacokinetic profiles were obtained for GDC-0810 and its glucuronide metabolites (acyl-glucuronide and N-glucuronide) using a validated liquid chromatography/ tandem mass spectrometry method, and analyzed using non-compartmental methods for all patients in the dose escalation cohorts.
Tumor assessments were performed at screening and every 8 weeks from cycle-1, day-1 […]

MBC = system: MBC; set-up: method as in PMID 34906954; conditions: cited from earlier work
[2] = set-up: method as in PMID 32919527; conditions: cited from earlier work
ER = system: ER; set-up: method as in PMID 25380844; conditions: patients receiving fulvestrant; cited from earlier work

Structure (SMILES): CC/C(=C(/c1ccc(/C=C/C(=O)O[C@@H]2O[C@H](C(=O)O)[C@@H](O)[C@H](O)[C@H]2O)cc1)c1ccc2[nH]ncc2c1)c1ccc(F)cc1Cl [GDC-0810-acyl-glucuronide]
- average plasma exposure of metabolite relative to parent GDC-0810 [1]: ~10%

Structure (SMILES): CCNCCc1ccc(CN(CC)c2cc(OC)ccc2[C@@H]2CCc3cc(O)ccc3C2)cc1 [elacestrant]
- PFS (MBC; patients with MBC who received endocrine + CDK4/6 previously): 2.8 months
- median PFS (MBC; patients with tumors harboring ESR1 mutations): 3.8 months

Structure (SMILES): C[C@]12CC[C@@H]3c4ccc(O)cc4C[C@@H](CCCCCCCCC[S+]([O-])CCCC(F)(F)C(F)(F)F)[C@H]3[C@@H]1CC[C@@H]2O (some centres unmarked) [fulvestrant]
- solubility [2]: poor solubility
- patients with residual ER activity by FES-PET (ER): 38%
